{"source": "patent US20260216103A1", "about": "“USE OF LONG-ACTING ß2AR AGONIST IN PREPARATION OF DRUGS FOR TREATING CANCERS” (HONG KONG SXMETEROL PHARMACEUTICAL CO., LIMITED, priority 2023, published 2026)", "key": {"[1]": {"tested_on": "cancer stem cells of 17 cancers", "assay": "tumor sphere formation assays of cancer cells, summary over 17 cancers", "format": "cell-based", "settings": "summary of Examples 1-9; agonist used alone", "source_text": "As a gold standard for detecting the self-renewal capability of cancer stem cells in vitro, a tumor sphere formation assay may detect individual cancer stem cell that continuously self-renew in a conditioned medium and form tumor spheres consisting of multiple cells. This in vitro experiment is often used to test the responsiveness of clinical patients to anticancer drugs, and guide in vivo medication of the clinical patients.\nCancer stem cells have self-renewal capability, which determines the initiation and progression of cancers. As a gold standard for detecting the self-renewal capability of cancer stem cells in vitro, a tumor sphere formation assay may detect individual cancer stem cells that continuously self-renew in a conditioned medium and form tumor spheres consisting of multiple cells."}, "[2]": {"tested_on": "MDA-MB-231, SW620, CT-26, H460, H446, B16F10, A375, CAL-27, KYSE-150, RT4, SU-DHL-8, PC-3, Hep G2, 786-O, CFPAC-1, PANC-1, Hela", "assay": "tumor sphere formation assays of a variety of cancer cells (Example 4, CH)", "format": "cell-based", "settings": "1 μM, 3 μM, or 10 μM, 7 d; FIG. 30", "protocol": "After 7 d, tumor spheres in the control group and the CH treated group were counted and photographed, respectively.\n(§1) Using a One-way ANOVA analysis method and Fisher's LSD test as a post test, statistical differences in the number of tumor spheres in all the groups were analyzed (*, P<0.05; **, P<0.01; ***, P<0.001; ****, P<0.0001)."}, "[3]": {"tested_on": "MDA-MB-231, SW620, CT-26, H460, H1299, LLC, H446, B16F10, A375, CAL-27, KYSE-150, RT4, SU-DHL-8, PC-3, Hep G2, G-401, 786-O, SNU-1, CFPAC-1, SF126, Hela", "assay": "tumor sphere formation assays of a variety of cancer cells (Example 8, TH)", "format": "cell-based", "settings": "1 μM, 3 μM, or 10 μM, 7 d; FIG. 34", "description": "After 7 d, tumor spheres in the control group and the TH treated group were counted and photographed, respectively."}, "[4]": {"tested_on": "MDA-MB-231, SW620, CT-26, H460, H1299, LLC, H446, B16F10, A375, CAL-27, KYSE-150, RT4, SU-DHL-8, PC-3, Hep G2, G-401, 786-O, SNU-1, CFPAC-1, PANC-1, SF126 …", "assay": "tumor sphere formation assays of a variety of cancer cells (Example 9, VT)", "format": "cell-based", "settings": "1 μM, 3 μM, or 10 μM, 7 d; FIG. 35", "description": "After 7 d, tumor spheres in the control group and the VT treated group were counted and photographed, respectively."}, "[5]": {"tested_on": "MDA-MB-231, SW620, CT-26, H460, H446, B16F10, A375, CAL-27, KYSE-150, RT4, SU-DHL-8, PC-3, Hep G2, SKOV3, G-401, CFPAC-1, PANC-1, SF126, U2OS, Hela", "assay": "tumor sphere formation assays of a variety of cancer cells (Example 7, OH)", "format": "cell-based", "settings": "1 μM, 3 μM, or 10 μM, 7 d; FIG. 33", "description": "According to culture conditions in Table 1-Table 17 of Example 1, breast cancer cells MDA-MB-231 (A), colorectal cancer cells SW620 (B), colorectal cancer cells CT-26 (C), lung cancer cells H460 (D), lung cancer cells H446 (E), melanoma cells B16F10 (F), melanoma cells A375 (G), head and neck cancer cells CAL-27 (H), esophageal cancer cells KYSE-150 (I), bladder cancer cells RT4 (J), hematoma cells SU-DHL-8 (K), prostate cancer cells PC-3 (L), liver cancer cells Hep G2 (M), ovarian cancer cells SKOV3 (N), kidney cancer cells G-401 (O), pancreatic cancer cells CFPAC-1 (P), pancreatic cancer cells PANC-1 (Q), brain cancer cells SF126 (R), osteosarcoma cells U2OS(S), and cervical cancer cells Hela (T) were subjected to tumor sphere formation assays, and treated with olodaterol hydrochloride (OH) at concentrations of 1 μM, 3 μM, or 10 μM, respectively. After 7 d, tumor spheres in the control group and the OH treated group were counted and photographed, respectively.\nas §1"}, "[6]": {"tested_on": "MDA-MB-231, SW620, CT-26, H460, H446, B16F10, A375, CAL-27, RT4, SU-DHL-8, PC-3, Hep G2, 786-O, SNU-1, CFPAC-1, PANC-1, SF126, Hela", "settings": "1 μM, 3 μM, or 10 μM, 7 d; FIG. 28", "experimental": "After 7 d, tumor spheres in the control group and the AT treated group were counted and photographed, respectively.\nUsing a One-way ANOVA analysis method and Fisher's LSD test as a post test, statistical differences in the number of tumor spheres in all the groups were analyzed (*, P<0.05; **, P<0.01; ***, P<0.001; ****, P<0.0001; n.s., no significant difference)."}, "[7]": {"tested_on": "MDA-MB-231, SW620, CT-26, H460, H446, B16F10, A375, CAL-27, KYSE-150, RT4, SU-DHL-8, PC-3, Hep G2, SKOV3, 786-O, CFPAC-1, PANC-1, SF126, U2OS, Hela", "assay": "tumor sphere formation assays of a variety of cancer cells (Example 3, BH)", "format": "cell-based", "settings": "1 μM, 3 μM, or 10 μM, 7 d; FIG. 29", "protocol": "After 7 d, tumor spheres in the control group and the BH treated group were counted and photographed, respectively.\nas §1"}, "[8]": {"tested_on": "MDA-MB-231, SW620, CT-26, H460, H1299, LLC, H446, B16F10, A375, CAL-27, KYSE-150, RT4, SU-DHL-8, PC-3, Hep G2, G-401, SNU-1, CFPAC-1, PANC-1, SF126, U2OS, Hela", "assay": "tumor sphere formation assays of a variety of cancer cells (Example 6, IM)", "format": "cell-based", "settings": "1 μM, 3 μM, or 10 μM, 7 d; FIG. 32", "description": "After 7 d, tumor spheres in the control group and the IM treated group were counted and photographed, respectively."}, "chronic myeloid leukemia": {"tested_on": "chronic myeloid leukemia", "settings": "patients, first-line treatment for chronic myeloid leukemia; cited from earlier work"}, "[9]": {"tested_on": "MDA-MB-231, SW620, CT-26, H460, H446, B16F10, A375, CAL-27, KYSE-150, RT4, SU-DHL-8, PC-3, Hep G2, 786-O, CFPAC-1, PANC-1, Hela", "assay": "tumor sphere formation assays of a variety of cancer cells (Example 5, FH)", "format": "cell-based", "settings": "1 μM, 3 μM, or 10 μM, 7 d; FIG. 31", "protocol": "After 7 d, tumor spheres in the control group and the FH treated group were counted and photographed, respectively.\nas §1"}}, "note": "Counter-ions that a name gives are not always drawn.", "data": [{"smiles": "CC(C)(C)NCC(O)c1cc(Cl)c(N)c(Cl)c1", "note": "(stereo not shown) [clenbuterol hydrochloride]", "values": [{"measurement": "self-renewal capability of cancer stem cells", "setting": "[1]", "result": "can significantly inhibit the self-renewal capability of cancer stem cells of 17 cancers"}, {"measurement": "number of tumor spheres (inhibition of tumor sphere formation)", "setting": "[2]", "result": "has therapeutic effects on a variety of types of cancer in a concentration dependent manner"}]}, {"smiles": "CC(C)(C)NCC(O)c1ccccc1Cl", "note": "(stereo not shown) [tulobuterol hydrochloride]", "values": [{"measurement": "self-renewal capability of cancer stem cells", "setting": "[1]", "result": "can significantly inhibit the self-renewal capability of cancer stem cells of 17 cancers"}, {"measurement": "number of tumor spheres (inhibition of tumor sphere formation)", "setting": "[3]", "result": "has therapeutic effects on a variety of types of cancer in a concentration dependent manner"}]}, {"smiles": "O=C(O)C(c1ccccc1)(c1ccccc1)c1ccccc1.OCc1cc([C@@H](O)CNCCCCCCOCCOCc2c(Cl)cccc2Cl)ccc1O", "note": "[vilanterol trifenate]", "values": [{"measurement": "number of tumor spheres (inhibition of tumor sphere formation)", "setting": "[4]", "result": "has therapeutic effects on a variety of types of cancer in a concentration dependent manner"}, {"measurement": "self-renewal capability of cancer stem cells", "setting": "[1]", "result": "can significantly inhibit the self-renewal capability of cancer stem cells of 17 cancers"}]}, {"smiles": "COc1ccc(CC(C)(C)NC[C@H](O)c2cc(O)cc3c2OCC(=O)N3)cc1", "note": "[olodaterol hydrochloride]", "values": [{"measurement": "self-renewal capability of cancer stem cells", "setting": "[1]", "result": "can significantly inhibit the self-renewal capability of cancer stem cells of 17 cancers"}, {"measurement": "number of tumor spheres (inhibition of tumor sphere formation)", "setting": "[5]", "result": "has therapeutic effects on a variety of types of cancer in a concentration dependent manner"}]}, {"smiles": "COc1ccc(C[C@@H](C)NC[C@H](O)c2ccc(O)c(NC=O)c2)cc1", "note": "[arformoterol tartrate]", "values": [{"measurement": "number of tumor spheres (inhibition of tumor sphere formation)", "setting": "[6]", "result": "has therapeutic effects on a variety of types of cancer in a concentration dependent manner"}]}, {"smiles": "CN(C)C(=O)Oc1cc(OC(=O)N(C)C)cc(C(O)CNC(C)(C)C)c1", "note": "(stereo not shown) [bambuterol hydrochloride]", "values": [{"measurement": "self-renewal capability of cancer stem cells", "setting": "[1]", "result": "can significantly inhibit the self-renewal capability of cancer stem cells of 17 cancers"}, {"measurement": "number of tumor spheres (inhibition of tumor sphere formation)", "setting": "[7]", "result": "has therapeutic effects on a variety of types of cancer in a concentration dependent manner"}]}, {"smiles": "CCc1cc2c(cc1CC)CC(NC[C@H](O)c1ccc(O)c3[nH]c(=O)ccc13)C2", "note": "[indacaterol maleate]", "values": [{"measurement": "self-renewal capability of cancer stem cells", "setting": "[1]", "result": "can significantly inhibit the self-renewal capability of cancer stem cells of 17 cancers"}, {"measurement": "number of tumor spheres (inhibition of tumor sphere formation)", "setting": "[8]", "result": "has therapeutic effects on a variety of types of cancer in a concentration dependent manner"}]}, {"smiles": "Cc1ccc(NC(=O)c2ccc(CN3CCN(C)CC3)cc2)cc1Nc1nccc(-c2cccnc2)n1", "note": "[imatinib, Imatinib]", "values": [{"measurement": "overall 10-year survival rate", "setting": "chronic myeloid leukemia", "result": 83.3, "unit": "%"}]}, {"smiles": "COc1ccc(C[C@@H](C)NC[C@H](O)c2ccc(O)c(NC=O)c2)cc1.COc1ccc(C[C@@H](C)NC[C@H](O)c2ccc(O)c(NC=O)c2)cc1.O=C(O)/C=C/C(=O)O", "note": "[formoterol hemifumarate]", "values": [{"measurement": "self-renewal capability of cancer stem cells", "setting": "[1]", "result": "can significantly inhibit the self-renewal capability of cancer stem cells of 17 cancers"}, {"measurement": "number of tumor spheres (inhibition of tumor sphere formation)", "setting": "[9]", "result": "has therapeutic effects on a variety of types of cancer in a concentration dependent manner"}]}]}
